One data set has as its system Female Lewis rats. As to the kind of experiment: In vivo rheumatoid arthritis model (Freund's complete adjuvant, paw swelling). Conditions: paw swelling vs vehicle control. As for the experimental part:
Female Lewis rats (200–250 g) were sensitized with Freund's complete adjuvant (100 ug) by subcutaneous injection at the base of the tail. Paw swelling was monitored by measuring the volume of each foot with a plethysmometer on days 5, 8, 12–15. Animals were euthanized on day 15. […] Data is expressed as the % inhibition of paw swelling (AUC of the paw volume vs time curve d5–15) compared with vehicle control. The formulations used contained various mixtures of the following excipients (propylene glycol, polyethylene glycol, Tween 80, Glycofurol).

For the next data set, the system named is IL-6. Briefly: Cytokine screening: LPS-induced secretion of IL-6 from hPBMCs. It counts as cell-based. The note with it: Homo sapiens, Biological Table 2, LPS 1 μg/ml, mean ± standard deviation. As for the experimental part: (§1) Fresh cryopreserved hPBMCs (1 million cells/ml; Clonetics, Inc.) were pretreated with test compound for 1 hr in lymphocyte growth media-3 (Clonetics, Inc.), followed by stimulation with 1 μg/ml of LPS for another 2 hr in the presence of test compound. Conditioned media was collected and assayed for secreted TNF-α, IL-1β and […] using commercially available human ELISA kits (R&D Systems). Samples were measured in duplicate and data presented as mean ± standard deviation. Each experiment was repeated at least three times with similar results.

Another data set has as its system TNF-α. As to the kind of experiment: Cytokine screening: LPS-induced secretion of TNF-α from hPBMCs. The data set is classed as cell-based. Conditions: Homo sapiens. As for the experimental part: as §1
The next data set deals with Balb/C mice. Briefly: In vivo asthma model (ovalbumin-sensitized mice, BAL fluid eosinophilia). The note with it: 25 mg/kg, sc, qd; BALF eosinophilia vs vehicle control. How it is done: Balb/C mice (6–8 weeks old) were sensitized to ovalbumin (ova) (8 ug ova absorbed in 3.3 mg Alum inject) on days 0 and 5. On day 12, the mice were aerosol challenged with 0.5% ovalbumin dissolved in sterile saline for 1 hr in the AM, and then again in the PM (at least 4 hr apart). On day 14, the mice were anesthetized with ketamine/xylazine/acepromazine cocktail, exsanguinated, and then euthanized. Following blood collection, bronchoaveolar lavage (BAL) was performed on each animal. Total cell counts were conducted on the lavage fluid, which was subsequently diluted with cell media 1:1. Slides of the lavage fluid were made by spinning the samples with a cytospin centrifuge and then air drying. Cell differentials of the lavage fluid were determined by microscopic evaluation of hematoxylin and eosin-stained slides. Data are expressed as the % inhibition of eosinophilia in the BAL fluid compared to the vehicle control. […] The formulations used contained various mixtures of the following excipients (propylene glycol, polyethylene glycol, Tween 80, Glycofurol).

A further data set deals with IL-1β. Briefly: Cytokine screening: LPS-induced secretion of IL-1β from hPBMCs. The note with it: Homo sapiens, Biological Table 2, LPS 1 μg/ml, mean ± standard deviation. The data set is classed as cell-based. How it is done: as §1
A further data set relates to Male BALB/c mice. As to the kind of experiment: mBSA-induced delayed-type hypersensitivity (DTH) model of inflammation in mice. Conditions: vehicle swelling = 100%. The data set is classed as in vivo. How it is done:
The methylated bovine serum albumin (mBSA)-induced delayed-type hypersensitivity (DTH) model of mice is generally used for screening compounds with anti-inflammatory effects (Sarnstrand et al., Pharmacol. Exp. Ther. 1999, 288, 1174–84). Compounds of Ex-1 and Ex-2 were tested in this model, dosed subcutaneously at 24 and 2 hrs prior to challenge at doses of 50 and 25 mg/kg with cyclosporin A (CSA) as positive control.
Male BALB/c mice (20–25 g) were sensitized on day 0 by intradermal abdominal injection of 100 μL of a 1:1 emulsion of mBSA (5 mg/ml) and Freund's complete adjuvant. On day 7, the mice were challenged by injecting 25 μL of mBSA (5 mg/ml) into the footpad of the right hindpaw and the left hindpaw was injected with saline. Mice were treated by s.c. injection of test compound 24 hrs and 2 hrs before the challenge. Twenty four hours after challenge mice were sacrificed by CO2 inhalation. The feet were removed by cutting just above the heel with scissors, and the mass of the saline-injected foot was subtracted from the mass of the mBSA injected foot to determine the amount of swelling that occurred in the latter. Inhibition of swelling for test compound group was calculated, taking the swelling of the vehicle-treated group as 100%. The results from the DTH model are summarized for examples 1 and 2 in Biological Table 4 using cyclosporine A (CSA) as a positive control.

Data set [1] deals with VCAM-1. As to the kind of experiment: In Vitro VCAM-1 Assay - Method 1 (TNF-α stimulated endothelial cells, surface VCAM-1 ELISA). The note with it: Homo sapiens, Endothelial cell; HAEC or HPAEC, TNF-α 1 ng/ml with compound approximately 16 hours. It counts as cell-based. As for the experimental part: Cell Culture and compound dosing: Cultured primary human aortic (HAEC) or pulmonary (HPAEC) endothelial cells were obtained from Clonetics, Inc., and were used below passage 9. Cells were seeded in 96 well plates such that they would reach 90–95% confluency by the following day. On the following day the cells were stimulated with TNF-α (1 ng/ml) in the presence or absence of compounds dissolved in DMSO such that the final concentration of DMSO is 0.25% or less. To establish a dose curve for each compound, four concentrations in 2- to 5-fold increments were used. Cells were exposed to TNF-α and compounds for approximately 16 hours. The next day the cells were examined under microscope to score for visual signs of toxicity or cell stress.
Following 16 hr exposure to TNF-α and compound the media was discarded and the cells were washed once with Hanks Balanced Salt Solution (HBSS)/Phosphate buffered saline (PBS) (1:1). Primary antibodies against VCAM-1 (0.25 μg/ml in HBSS/PBS+5% FBS) were added and incubated for 30–60 minutes at 37° C. Cells were washed with HBSS/PBS three times, and secondary antibody Horse Radish Peroxidase (HRP)-conjugated goat anti-mouse IgG (1:500 in HBSS/PBS+5% FBS) were added and incubated for 30 minutes at 37° C. Cells were washed with HBSS/PBS four time and TMB substrate were added and incubated at room temperature in the dark until there was adequate development of blue color. The length of time of incubation was typically 5–15 minutes. 2N sulfuric acid was added to stop the color development and the data was collected by reading the absorbance on a BioRad ELISA plate reader at OD 450 nm. The results are expressed as IC50 values (the concentration (micromolar) of compound required to inhibit 50% of the maximal response of the control sample stimulated by TNF-α only). IC50's of tested compounds are tabulated in Biological Table 1.
On the technique in general: In an ELISA, binding on a coated surface is turned into a signal by an enzyme label.

The subject of data set [2] is VCAM-1. Briefly: In Vitro VCAM-1 Assay - Method 2 (19 h predosing, 4 h TNFα stimulation, surface VCAM-1). It counts as cell-based. The note with it: Homo sapiens; HAEC or HPAEC, predosed 19 hours, TNFα 1.5 ng/ml 4 hours. How it is done:
Cultured primary human aortic (HAEC) or pulmonary artery (HPAEC) endothelial cells are obtained from BioWhittaker (formerly Clonetics), and are used below passage 9. Cells are seeded in 96-well plates such that they will reach ˜95% confluency by the following day (i.e.10,000 cells/well). Compounds are reconstituted in DMSO (100%) and sonicated to ensure maximum dissolution. Dilutions are then made in DMSO to 500× of final concentrations. These stocks are then diluted 500× into cell culture media (EGM-2 Mv, BioWhittaker) and placed overnight in tissue culture incubator (37° C., 5% CO2) to allow maximum dissolution).
Media is removed from the cells and replaced with the prewarmed dosing media. Cells are predosed in this manner for 19 hours at 37° C., 5% CO2. Remove media again from the cells and replace with prepared dosing media containing TNFα (1.5 ng/ml). Allow stimulation to continue for 4 hours at 37° C., 5% CO2. Media is removed and saved for evaluation of secreted factors as needed. Cells are used for quantitating surface VCAM-1, followed by Hoescht nuclear stain for cell number to determine toxicity. Assay for surface VCAM-1 continues as described in Method 1. IC50's of tested compounds are tabulated in Biological Table 1.

Data set [3] has as its system LDL receptor-deficient rabbits. The note with it: cited from earlier work.
The conditions of data set [4]: clinical trials; cited from earlier work.
Data set [5] deals with murine model of allergic pulmonary inflammation. The note with it: cited from earlier work.
[6] abbreviates: Biological Table 3, LPS-induced secretion from hPBMN cells, average of at least three determinations.
Setting [7] is: Biological Table 2, hPBMCs, LPS 1 μg/ml, mean ± standard deviation.
The mark [8] stands for this setting: 25 mg/Kg s.c. 24 hrs and 2 hrs before challenge.
Where [9] appears, read: 50 mg/Kg s.c. 24 hrs and 2 hrs before challenge.

`CC(C)(Sc1cc(C(C)(C)C)c(O)c(C(C)(C)C)c1)Sc1cc(C(C)(C)C)c(OC[C@@H](O)[C@H](O)CO)c(C(C)(C)C)c1` [Ex-2, 4-{2,6-Di-tert-butyl-4-[1-(3,5-di-tert-butyl-4-hydroxyphenylsulfanyl)-1-methylethylsulfanyl]-phenoxy}butane-1,2(R),3(R)-triol]: the melting point (usually the temperature, or range, at which the solid turns liquid) was 69 to 71 °C. In addition, the “Rheumatoid arthritis model (25 mg/kg, sc, qd, inhibition of paw swelling in percentage)” value with Female Lewis rats is 75 percentage. For the same compound, the IC50 (usually the concentration that inhibits the measured activity by half) in the data set with IL-6 was found to be 1.2 ± 0.3 µM. This compound also gave an IC50 with TNF-α (setting [6]) of 1.6 µM. Also, the IC50 in the data set on TNF-α (setting [7]) stood at 3.3 ± 0.3 µM. The “Inhibition of BAL fluid eosinophilia (asthma model)” value (“Inhibition … (asthma model)” for short) in the data set with Balb/C mice stood at 65 percentage. Half-maximal inhibition with IL-1β (IC50) required 8 µM. For the same compound, the “Percent Inhibition (of swelling)” value in the data set on Male BALB/c mice (setting [8]) is given as “+25%”. Further, in the data set with Male BALB/c mice (setting [9]), the “Percent Inhibition (of swelling)” value is reported as “+60%”. Besides, in the data set with VCAM-1 [1], the IC50 amounted to 5 µM.

With `CC(C)(Sc1cc(C(C)(C)C)c(O)c(C(C)(C)C)c1)Sc1cc(C(C)(C)C)c(OC[C@H](O)[C@@H](O)CO)c(C(C)(C)C)c1` [Ex-1, 4-{2,6-Di-tert-butyl-4-[1-(3,5-di-tert-butyl-4-hydroxyphenylsulfanyl)-1-methylethyl-sulfanyl]phenoxy}butane-1,2(S),3(S)-triol], the melting point is 69 to 71 °C. This compound also returned an IC50 in the data set with VCAM-1 [2] of 9 µM. In the data set on IL-6, this compound had an IC50 of 1.7 ± 0.9 µM. This compound returned an IC50 in the data set with TNF-α (setting [6]) of 5.1 µM. The compound further registered an IC50 with TNF-α (setting [7]) of 4 ± 1 µM. Moreover, the “Inhibition … (asthma model)” value in the data set on Balb/C mice is on record as 87 percentage. The compound also gave an IC50 with IL-1β of 7.7 ± 0.6 µM. The “Percent Inhibition (of swelling)” value in the data set on Male BALB/c mice (setting [8]) is listed as “+40%”. The “Percent Inhibition (of swelling)” value in the data set with Male BALB/c mice (setting [9]) is “+65%”. In addition, the IC50 in the data set on VCAM-1 [1] was 7 µM.

With `CC(C)(Sc1cc(C(C)(C)C)c(O)c(C(C)(C)C)c1)Sc1cc(C(C)(C)C)c(O)c(C(C)(C)C)c1` [probucol, 4,4′-(isopropylidenedithio) bis(2,6-di-tert-butylphenol)], the progression of atherosclerosis entry in data set [3] was “slow the progression of atherosclerosis”.

For the compound `CC(C)(Sc1cc(C(C)(C)C)c(O)c(C(C)(C)C)c1)Sc1cc(C(C)(C)C)c(OC(=O)CCC(=O)O)c(C(C)(C)C)c1` [AGI-1067], the QTc prolongation entry in [4] is “did not cause QTc prolongation”.

In the case of `CC(C)(Sc1cc(C(C)(C)C)c(O)c(C(C)(C)C)c1)Sc1cc(C(C)(C)C)c(OCC[C@H](O)CO)c(C(C)(C)C)c1` [Ex-10, 4-{2,6-Di-tert-butyl-4-[1-(3,5-di-tert-butyl-4-hydroxy-phenylsulfanyl)-1-methyl-ethylsulfanyl]-phenoxy}-butane-1,2(S)-diol], the melting point lay within 110 to 112 °C. The “Rheumatoid arthritis model (25 mg/kg, sc, qd, inhibition of paw swelling in percentage)” value with Female Lewis rats came out at 85 percentage. The half-maximal inhibitory concentration (IC50) with VCAM-1 [2] was found to be 8 µM. For the same compound, inhibition in the data set on TNF-α (setting [6]) was half-maximal at 3.8 µM (IC50). Moreover, the “Inhibition … (asthma model)” value in the data set with Balb/C mice amounted to 78 percentage. Further, the IC50 with VCAM-1 [1] is 40 µM.

As to `COc1cc(CC(=O)N[C@@H](CC(C)C)c2cc(CCC(=O)O)on2)ccc1NC(=O)Nc1ccccc1C` [CP-664511], in [5], the airway eosinophil infiltration result is “inhibited airway eosinophil infiltration”.

The values above are taken from US7271274B2, “Phenolic antioxidants for the treatment of disorders including arthritis, asthma and coronary artery disease” (AhteroGenics, Inc., priority 2004, dated 2007).
